The values below come from PubChem BioAssay (NCI).

Structures are written as SMILES.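 Values below derive from 48-hour exposures of cells grown in 96-well plates, with endpoints linearly interpolated between the two concentrations bracketing the appropriate inhibition level. TGI denotes the concentration required for complete inhibition of growth.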

Holding throughout (assay): growth of human tumour cells (NCI), 48 h
For assay [1], the system named is MALME-3M melanoma.
Assay [2] concerns TK-10 renal.
Assay [3] concerns OVCAR-4 ovarian.
Assay [4] concerns U251 CNS.
For assay [5], the system named is OVCAR-3 ovarian.
Assay [6] deals with OVCAR-8 ovarian.

Take `CCOC(=O)C1=C(OS(=O)(=O)C(F)(F)F)CCCC1`: the TGI in assay [1], in assay [2], in assay [3], in assay [4], in assay [5] and in assay [6] was over 100 µM throughout.

For the molecule `Cn1c(=O)nc2n(CCO)ccnc-2c1=O`, the TGI in assay [1], in assay [2], in assay [3], in assay [4], in assay [5] and in assay [6] was over 100 µM each time.

Consider `COc1ccc(-n2nnc3c(C#N)c(-c4ccccc4)c(C)n3c2=O)cc1`, for which the TGI in assay [1], in assay [2], in assay [3], in assay [4], in assay [5] and in assay [6] was over 100 µM each time.

Turning to `C=CC1(c2ccc3ccccc3c2)OCC(CC)(CC)CO1`, the TGI in assay [1] was 49.1 µM; in assay [2] it was 89.5 µM; in assay [3] it was over 100 µM; in assay [4], 42 µM; in assay [5] it was 51.5 µM; in assay [6], over 100 µM.

Take `NC(=O)NC(CC(=O)O)C(=O)O` (stereo unspecified): the TGI in assay [1], in assay [2], in assay [3], in assay [4], in assay [5] and in assay [6] was over 100 µM in each case.

Consider `COc1ccc(C2=NN(C(=O)c3ccccc3)C(O)(c3cc(F)c(Cl)cc3Cl)C2)cc1OC` (stereo unspecified), for which the TGI is over 100 µM in assay [1]; 98.1 µM in assay [2]; 53.1 µM in assay [3]; over 100 µM in assay [4]; 69.3 µM in assay [5]; over 100 µM in assay [6].

Consider `Cc1[nH]c2ncn3ncnc3c2c1Cc1ccccc1`, for which the TGI in assay [1], in assay [2], in assay [3], in assay [4], in assay [5] and in assay [6] was over 100 µM in each case.

Consider `COC(=O)c1cc(C)n2c1CS[C@@H]2c1ccccc1`, for which the TGI in assay [1], in assay [2], in assay [3], in assay [4], in assay [5] and in assay [6] was over 100 µM in each case.

Consider `OC(c1ccc(F)cc1)C(F)(F)c1nc(-c2ccccc2)no1` (stereo unspecified), for which the TGI was 35 µM in assay [1]; over 100 µM in assay [2]; 41.5 µM in assay [3]; 29.2 µM in assay [4]; 30.6 µM in assay [5]; over 100 µM in assay [6].

As to `COc1cc(C2SCC(=O)N2c2ccc(-c3ccc(-n4c(-c5ccccc5)nc5ccccc5c4=O)cc3)cc2)ccc1O` (stereo unspecified), the TGI in assay [1], in assay [2], in assay [3], in assay [4], in assay [5] and in assay [6] was over 100 µM in each case.

Take `C[C@@H](C(=O)O)c1ccc(-c2ccccc2)c(F)c1`: the TGI in assay [1], in assay [2], in assay [3], in assay [4], in assay [5] and in assay [6] was over 100 µM each time.

Consider `COC(=O)C(/C(=N/N)C(=O)Nc1ccc(C)c(C)c1)c1nc2ccc(Cl)cc2[nH]c1=O` (stereo unspecified), for which the TGI in assay [1], in assay [2], in assay [3], in assay [4], in assay [5] and in assay [6] was over 100 µM in each case.

As for `Cc1nc2c(=O)[nH]c3ccccc3c2o1`, the TGI in assay [1], in assay [2], in assay [3], in assay [4], in assay [5] and in assay [6] was over 100 µM throughout.

In the case of `O=C(CC(=O)N(C(=O)c1ccccc1)c1ccc(Cl)cc1)N/N=C\c1ccccc1O`, the TGI in assay [1], in assay [2], in assay [3], in assay [4], in assay [5] and in assay [6] was over 100 µM throughout.

As to `CC1=NN(c2nc(N)nc(C(C)Sc3cc(Cl)c(C)cc3S(N)(=O)=O)n2)C(C)(C)C1` (stereo unspecified), the TGI in assay [1], in assay [2], in assay [3], in assay [4], in assay [5] and in assay [6] was over 10 µM each time.

For `COc1ccc(C(=O)/C=C2\c3ccccc3C(=O)N2C)cc1`, the TGI in assay [1], in assay [2], in assay [3], in assay [4], in assay [5] and in assay [6] was over 100 µM each time.

In the case of `CN(C)C(=S)N/N=C\C(=N/NC(=S)N(C)C)c1ccccc1`, the TGI in assay [1] was over 57.5 µM; in assay [2], over 100 µM; in assay [3], over 100 µM; in assay [4], over 100 µM; in assay [5] it was over 23.4 µM; in assay [6], over 100 µM.

As to `CSC(=NC1CC(n2cc(C)c(=O)[nH]c2=O)OC1CO)NC#N` (stereo unspecified), the TGI in assay [1], in assay [2], in assay [3], in assay [4], in assay [5] and in assay [6] was over 100 µM in each case.

With `COc1ccc(-c2nc(N)c(C#N)c3c2CCSc2ccc(C)cc2-3)cc1OC`, the TGI in assay [1] was over 100 µM; in assay [2], over 100 µM; in assay [3], over 93.8 µM; in assay [4] it was over 100 µM; in assay [5] it was over 100 µM; in assay [6], over 73.6 µM.

Take `CC1(C)N(OC2CCCCO2)C(c2ccccc2)C(c2ccccc2)=[N+]1[O-]` (stereo unspecified): the TGI in assay [1], in assay [2], in assay [3], in assay [4], in assay [5] and in assay [6] was over 100 µM each time.

Regarding `COC(=O)[C@@]12CC[C@]1(C(=O)OC)C1C(C)=CC(=O)O[C@@]12C` (stereo partly specified), the TGI in assay [1], in assay [2], in assay [3], in assay [4], in assay [5] and in assay [6] was over 100 µM throughout.

Regarding `CN(C)CCCc1cccnc1`, the TGI in assay [1], in assay [2], in assay [3], in assay [4], in assay [5] and in assay [6] was over 100 µM each time.

As for `CC1=Nc2nc3ccccc3n2C(C)(C)C1`, the TGI in assay [1], in assay [2], in assay [3], in assay [4], in assay [5] and in assay [6] was over 100 µM each time.

As to `OCCOCCN1CCN(c2nc(N3CCCC3)c3nc(Cl)c(NCc4ccccc4)nc3n2)CC1`, the TGI in assay [1] came out at 29.9 µM; in assay [2] it was 25 µM; in assay [3] it was 30.8 µM; in assay [4], 25.5 µM; in assay [5] it was 29.2 µM; in assay [6], 32.2 µM.

`Cc1cccc2nc3n(c12)C(=O)c1ccccc1-3`: the TGI in assay [1], in assay [2], in assay [3], in assay [4], in assay [5] and in assay [6] was over 100 µM throughout.

As to `Nc1ccn([C@H]2CO[C@@H](CO)O2)c(=O)n1`, the TGI in assay [1], in assay [2], in assay [3], in assay [4], in assay [5] and in assay [6] was over 100 µM in each case.

Take `C[C@@H]1CCC2[C@@H](C)[C@H](O[C@H]3O[C@@H]4O[C@@]5(C)CCC6[C@H](C)CCC([C@H]3C)[C@]64OO5)O[C@@H]3O[C@@]4(C)CCC1[C@@]23OO4` (stereo partly specified): the TGI was 19.1 µM in assay [1]; 17.2 µM in assay [2]; 16.4 µM in assay [3]; 23.8 µM in assay [4]; 18.3 µM in assay [5]; 16.7 µM in assay [6].

Consider `Cc1nc2c(O)cccc2c(=O)[nH]1`, for which the TGI in assay [1], in assay [2], in assay [3], in assay [4], in assay [5] and in assay [6] was over 1000 µM each time.

With `CCCCOP(=O)(OCCCC)/C(C#N)=C/c1ccc(C)o1`, the TGI is 99.2 µM in assay [1]; over 100 µM in assay [2]; over 100 µM in assay [3]; over 100 µM in assay [4]; 57.6 µM in assay [5]; over 100 µM in assay [6].

As to `CCOC(=O)N1CC2(C(=O)OC)C=CC1C(C(=O)OC)C2` (stereo unspecified), the TGI in assay [1], in assay [2], in assay [3], in assay [4], in assay [5] and in assay [6] was over 100 µM each time.

Turning to `Cn1c(=O)cc(NNc2ccc(Br)cc2)[nH]c1=O`, the TGI was found to be 31.4 µM in assay [1]; 34.9 µM in assay [2]; 30.3 µM in assay [3]; 10 µM in assay [4]; 14.7 µM in assay [5]; 41.4 µM in assay [6].

Consider `NCCCCC(N)C(=O)N1CCN(c2nc(N3CCCC3)c3nc(Cl)c(NCc4ccccc4)nc3n2)CC1` (stereo unspecified), for which the TGI stood at 43.5 µM in assay [1]; 35.6 µM in assay [2]; 50.8 µM in assay [3]; 36.5 µM in assay [4]; 36.9 µM in assay [5]; 31.5 µM in assay [6].

As for `CC(=O)c1c2c(cc3c1CC1(Cc4cc5c(cc4C1=O)CCC5)C3)CCC2` (stereo unspecified), the TGI in assay [1], in assay [2], in assay [3], in assay [4], in assay [5] and in assay [6] was over 100 µM throughout.

For `Oc1ccc(-c2c3ccccc3c(-c3ccc(OCCBr)cc3)c3ccccc23)cc1`, the TGI in assay [1] was 33.8 µM; in assay [2], 99.2 µM; in assay [3] it was 58.3 µM; in assay [4], 53.3 µM; in assay [5], 33.7 µM; in assay [6] it was 64 µM.

As for `c1ccc2c(c1)ccc1ncccc12`, the TGI in assay [1], in assay [2], in assay [3], in assay [4], in assay [5] and in assay [6] was over 100 µM in each case.

Regarding `COc1c(C(=O)/C(=N/Nc2ccccc2)C(C)=O)c(O)c(OC)c2occc12`, the TGI in assay [1] is 92 µM; in assay [2], over 100 µM; in assay [3] it was over 100 µM; in assay [4] it was over 100 µM; in assay [5], over 100 µM; in assay [6], over 100 µM.

Consider `CC1=NN(C(=O)CC(=O)Nc2ccccc2C)C(=O)C1N=Nc1ccc(S(=O)(=O)c2ccc(N=NC3C(=O)N(C(=O)CC(=O)Nc4ccccc4C)N=C3C)cc2)cc1` (stereo unspecified), for which the TGI in assay [1], in assay [2], in assay [3], in assay [4], in assay [5] and in assay [6] was over 100 µM each time.

With `CCOC(=O)C1(Cc2ccccc2)Cc2cc3c(cc2C1=O)CCC3` (stereo unspecified), the TGI in assay [1], in assay [2], in assay [3], in assay [4], in assay [5] and in assay [6] was over 100 µM each time.

Regarding `CC(Oc1ccccc1)C(=O)NN` (stereo unspecified), the TGI in assay [1], in assay [2], in assay [3], in assay [4], in assay [5] and in assay [6] was over 100 µM each time.

As for `CC(=O)Nc1ccc2c3c(cc(O)c2c1)N(C(=O)CCCC(=O)Nc1ccc2c4c(cc(O)c2c1)N(C(=O)OC(C)(C)C)CC4CCl)CC3CCl` (stereo unspecified), the TGI was 2.75 µM in assay [1]; 35 µM in assay [2]; 6.4 µM in assay [3]; 4.38 µM in assay [4]; 2.89 µM in assay [5]; over 50 µM in assay [6].

As for `O=C(O)Cn1nnc2c(=O)[nH][nH]c(=O)c21`, the TGI in assay [1] was over 100 µM; in assay [2], over 100 µM; in assay [3], over 10 µM; in assay [4], over 100 µM; in assay [5], over 100 µM; in assay [6], over 100 µM.
